Measurements as given in patent US9376425B2, “Heterocyclic compounds as MDM2 inhibitors for the treatment of cancer” (AMGEN INC., priority 2011, dated 2016).

Target: T1, human MDM2 (GST-hMDM2 1-188), interaction with biotinylated-p53 (1-83) (Homo sapiens, UniProt Q00987)
T1 construct: Amino acid residues 1-188 of human MDM2 were expressed; made in house; host or cells: Escherichia coli
Assay: improved HTRF assay (HTRF2 assay), inhibition of HDM2-p53 interaction
Format: binding
Details: 0.2 nM GST-hMDM2, 0.5 nM biotinylated-p53, 100 mM KF
Summary of the method: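 GST-hMDM2 preincubated 20 min at RT with serially diluted compound, then biotinylated p53 (1-83, E. coli) added for 60 min. Detection with SA-XLent, anti-GST cryptate and KF, equilibrated >4 h; final DMSO 2%. TR-FRET read; % inhibition calculated relative to nutlin-3.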

T1 sequence (Q00987 1-188): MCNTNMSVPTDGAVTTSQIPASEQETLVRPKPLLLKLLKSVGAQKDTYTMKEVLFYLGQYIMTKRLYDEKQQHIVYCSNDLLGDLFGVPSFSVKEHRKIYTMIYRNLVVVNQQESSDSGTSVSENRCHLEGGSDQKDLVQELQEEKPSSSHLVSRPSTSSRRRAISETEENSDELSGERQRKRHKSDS

Row | Compound | IC50 [nM]
1 | CC[C@@H](CS(=O)(=O)C1CCOCC1)N1C(=O)[C@@H](CC(=O)O)O[C@H](c2cccc(Cl)c2)[C@H]1c1ccc(Cl)cc1 (single isomer, unassigned) [Example 187, 2-((2R,5R,6R)-6-(3-chlorophenyl)-5-(4-chlorophenyl)-3-oxo-4-((S)-1-((tetrahydro-2H-pyran-4-yl)sulfonyl)butan-2-yl)morpholin-2-yl)acetic acid or 2-((2S,5R,6R)-6-(3-chlorophenyl)-5-(4-chlorophenyl)-3-oxo-4-((S)-1-((tetrahydro-2H-pyran-4-yl)sulfonyl)butan-2-yl)morpholin-2-yl)acetic acid] | 2
2 | C[C@@H](CSC(C)(C)C)N1C(=O)CO[C@H](c2cccc(Cl)c2)[C@H]1c1ccc(Cl)cc1 [Example 222, (5R,6R)-4-((S)-1-(tert-butylthio)propan-2-yl)-6-(3-chlorophenyl)-5-(4-chlorophenyl)morpholin-3-one] | 170
3 | CC[C@@H](CS(=O)(=O)[C@H](C)C(C)C)N1C(=O)[C@H](CC(=O)O)O[C@H](c2cccc(Cl)c2)[C@H]1c1ccc(Cl)cc1 (single isomer, unassigned) [Example 282] | 2
4 | CCC[C@@H](CS(=O)(=O)C(C)(C)C)N1C(=O)[C@@H](CC(=O)O)O[C@H](c2cccc(Cl)c2)[C@H]1c1ccc(Cl)cc1 (single isomer, unassigned) [Example 195, 2-((2R,5R,6R)-4-((S)-1-(tert-butylsulfonyl)pentan-2-yl)-6-(3-chlorophenyl)-5-(4-chlorophenyl)-3-oxomorpholin-2-yl)acetic acid or 2-((2S,5R,6R)-4-((S)-1-(tert-butylsulfonyl)pentan-2-yl)-6-(3-chlorophenyl)-5-(4-chlorophenyl)-3-oxomorpholin-2-yl)acetic acid] | 3
5 | O=C(O)C[C@H]1O[C@H](c2cccc(Cl)c2)[C@@H](c2ccc(Cl)cc2)N([C@H](CN(c2ccccc2F)S(=O)(=O)C2CC2)CC(F)(F)F)C1=O (single isomer, unassigned) [Example 278] | 84
6 | C=CC[C@@H]1O[C@H](c2cccc(Cl)c2)[C@@H](c2ccc(Cl)cc2)N([C@@H](CC)CN(c2ccccn2)S(=O)(=O)C2CC2)C1=O (single isomer, unassigned) [Example 178, N-((S)-2-((2S,5R,6R)-2-allyl-6-(3-chlorophenyl)-5-(4-chlorophenyl)-3-oxomorpholino)butyl)-N-(pyridin-2-yl)cyclopropanesulfonamide or N-((S)-2-((2R,5R,6R)-2-allyl-6-(3-chlorophenyl)-5-(4-chlorophenyl)-3-oxomorpholino)butyl)-N-(pyridin-2-yl)cyclopropanesulfonamide] | 182
7 | CC(C)[C@@H](CN(c1ccccc1)S(=O)(=O)C1CC1)N1C(=O)[C@@H](CC(=O)O)O[C@H](c2cccc(Cl)c2)[C@H]1c1ccc(Cl)cc1 (single isomer, unassigned) [Example 192, 2-((2R,5R,6R)-6-(3-chlorophenyl)-5-(4-chlorophenyl)-4-((S)-3-methyl-1-(N-phenylcyclopropanesulfonamido)butan-2-yl)-3-oxomorpholin-2-yl)acetic acid or 2-((2S,5R,6R)-6-(3-chlorophenyl)-5-(4-chlorophenyl)-4-((S)-3-methyl-1-(N-phenylcyclopropanesulfonamido)butan-2-yl)-3-oxomorpholin-2-yl)acetic acid] | 1
8 | CC[C@@H](CN(c1ccccc1F)S(=O)(=O)C1CC1)N1C(=O)[C@H](CC(=O)NS(C)(=O)=O)O[C@H](c2cccc(Cl)c2)[C@H]1c1ccc(Cl)cc1 (single isomer, unassigned) [Example 239, 2-((2S,5R,6R)-6-(3-chlorophenyl)-5-(4-chlorophenyl)-4-((S)-1-(N-(2-fluorophenyl)cyclopropanesulfonamido)butan-2-yl)-3-oxomorpholin-2-yl)-N-(methylsulfonyl)acetamide or 2-((2R,5R,6R)-6-(3-chlorophenyl)-5-(4-chlorophenyl)-4-((S)-1-(N-(2-fluorophenyl)cyclopropanesulfonamido)butan-2-yl)-3-oxomorpholin-2-yl)-N-(methylsulfonyl)acetamide] | < 1
9 | CC[C@@H](CS(=O)(=O)[C@H](C)C(C)C)N1C(=O)[C@H](CC(=O)O)O[C@H](c2cccc(Cl)c2)[C@H]1c1ccc(Cl)cc1 (single isomer, unassigned) [Example 284] | 5
10 | CC(C)(C)S(=O)(=O)C[C@H](C1CC1)N1C(=O)[C@@H](CC(=O)Nc2ccccc2)O[C@H](c2cccc(Cl)c2)[C@H]1c1ccc(Cl)cc1 (single isomer, unassigned) [Example 351, 2-((2R,5R,6R)-4-((S)-2-(tert-Butylsulfonyl)-1-cyclopropylethyl)-6-(3-chlorophenyl)-5-(4-chlorophenyl)-3-oxomorpholin-2-yl)-N-phenylacetamide or 2-((2S,5R,6R)-4-((S)-2-(tert-butylsulfonyl)-1-cyclopropylethyl)-6-(3-chlorophenyl)-5-(4-chlorophenyl)-3-oxomorpholin-2-yl)-N-phenylacetamide] | 4
11 | CC1(C)CCCN1S(=O)(=O)C[C@H](C1CC1)N1C(=O)[C@@H](CC(=O)O)O[C@H](c2cccc(Cl)c2)[C@H]1c1ccc(Cl)cc1 (single isomer, unassigned) [Example 306, 2-((2R,5R,6R)-6-(3-Chlorophenyl)-5-(4-chlorophenyl)-4-((S)-1-cyclopropyl-2-((2,2-dimethylpyrrolidin-1-yl)sulfonyl)ethyl)-3-oxomorpholin-2-yl)acetic acid or 2-((2R,5R,6R)-6-(3-chlorophenyl)-5-(4-chlorophenyl)-4-((S)-1-cyclopropyl-2-((2,2-dimethylpyrrolidin-1-yl)sulfonyl)ethyl)-3-oxomorpholin-2-yl)acetic acid] | < 1
12 | CC(C)[C@@H](CN(c1ccccc1F)S(=O)(=O)C(C)C)N1C(=O)[C@@H](CC(=O)O)O[C@H](c2cccc(Cl)c2)[C@H]1c1ccc(Cl)cc1 (single isomer, unassigned) [Example 199, 2-((2R,5R,6R)-6-(3-chlorophenyl)-5-(4-chlorophenyl)-4-((S)-1-(N-(2-fluorophenyl)propan-2-ylsulfonamido)-3-methylbutan-2-yl)-3-oxomorpholin-2-yl)acetic acid or 2-((2S,5R,6R)-6-(3-chlorophenyl)-5-(4-chlorophenyl)-4-((S)-1-(N-(2-fluorophenyl)propan-2-ylsulfonamido)-3-methylbutan-2-yl)-3-oxomorpholin-2-yl)acetic acid] | 1
13 | CC(C)(C)S(=O)(=O)[C@H]1CCCC[C@@H]1N1C(=O)[C@@H](CC(=O)O)O[C@H](c2cccc(Cl)c2)[C@H]1c1ccc(Cl)cc1 [Example 249, 2-((2R,5R,6R)-4-((1S,2S)-2-(tert-butylsulfonyl)cyclohexyl)-6-(3-chlorophenyl)-5-(4-chlorophenyl)-3-oxomorpholin-2-yl)acetic acid] | 4
14 | CC(C)S(=O)(=O)C[C@H](C1CC1)N1C(=O)[C@@H](CC(=O)O)O[C@H](c2cccc(Cl)c2)[C@H]1c1ccc(Cl)cc1 (single isomer, unassigned) [Example 156, 2-((2R,5R,6R)-6-(3-chlorophenyl)-5-(4-chlorophenyl)-4-((S)-1-cyclopropyl-2-(isopropylsulfonyl)ethyl)-3-oxomorpholin-2-yl)acetic acid or 2-((2S,5R,6R)-6-(3-chlorophenyl)-5-(4-chlorophenyl)-4-((S)-1-cyclopropyl-2-(isopropylsulfonyl)ethyl)-3-oxomorpholin-2-yl)acetic acid] | 1
15 | 2-((2R,5R,6R)-6-(3-chlorophenyl)-5-(4-chlorophenyl)-4-((S)-1-(N-(2-fluorophenyl)cyclopropanesulfonamido)-3-methylbutan-2-yl)-3-oxomorpholin-2-yl)acetic acid or 2-((2S,5R,6R)-6-(3-chlorophenyl)-5-(4-chlorophenyl)-4-((S)-1-(N-(2-fluorophenyl)cyclopropane sulfonamido)-3-methylbutan-2-yl)-3-oxomorpholin-2-yl)acetic acid [Example 196] | 1
16 | O=C1[C@@H](Cc2nnn[nH]2)O[C@H](c2cccc(Cl)c2)[C@@H](c2ccc(Cl)cc2)N1[C@H](CN(c1ccccc1F)S(=O)(=O)C1CC1)C1CC1 (single isomer, unassigned) [Example 398, N-((S)-2-((2R,5R,6R)-2-((1H-Tetrazol-5-yl)methyl)-6-(3-chlorophenyl)-5-(4-chlorophenyl)-3-oxomorpholino)-2-cyclopropylethyl)-N-(2-fluorophenyl)cyclopropanesulfonamide or N-((S)-2-((2S,5R,6R)-2-((1H-tetrazol-5-yl)methyl)-6-(3-chlorophenyl)-5-(4-chlorophenyl)-3-oxomorpholino)-2-cyclopropylethyl)-N-(2-fluorophenyl)cyclopropanesulfonamide] | < 1
17 | CC(C)[C@H](CN(c1ccccc1)S(=O)(=O)C1CC1)N1C(=O)[C@@H](CC(=O)O)O[C@H](c2cccc(Cl)c2)[C@H]1c1ccc(Cl)cc1 (single isomer, unassigned) [Example 193, 2-((2R,5R,6R)-6-(3-chlorophenyl)-5-(4-chlorophenyl)-4-((R)-3-methyl-1-(N-phenylcyclopropanesulfonamido)butan-2-yl)-3-oxomorpholin-2-yl)acetic acid or 2-((2S,5R,6R)-6-(3-chlorophenyl)-5-(4-chlorophenyl)-4-((R)-3-methyl-1-(N-phenylcyclopropanesulfonamido)butan-2-yl)-3-oxomorpholin-2-yl)acetic acid] | 32
